Experimental data reported in paper PMC8436411 (ACS Medicinal Chemistry Letters, 2021).
In brackets after ≈: the same amount, converted by molar mass. Several values for one entry are separate records, joined by “and”; a condition that tells them apart may be missing. Equal values may be shown once. Read-outs that look alike come from different tables or passages of the source.

Assays:
E. coli (ATCC 25922) [1] = settings: Table S3; ref 10 (SI); cited from earlier work
[2] = test system: Streptococcus agalactiae RDK 047 (QA-990/02); settings: Table S3; ref 10 (SI); cited from earlier work
[3] = test system: Salmonella alachua RDK 030c (QA-1482/04); settings: Table S3; ref 10 (SI); cited from earlier work
S. aureus (ATCC 29213) [4] = settings: Table S3; ref 10 (SI); cited from earlier work
[5] = test system: Pseudomonas aeruginosa RDK 184 (DSM 939); settings: cited from earlier work; for MIC P. aeruginosa RDK 184 (DSM 939): Table S3, ref 10 (SI)
MRSA (QA-11.7) [6] = settings: Table S3; ref 10 (SI); cited from earlier work
E. coli D22 [7] = settings: Table S3; mutation in the lpxC gene that increases membrane permeability; ref 10 (SI); cited from earlier work
[8] = test system: Enterococcus faecalis DRK 057 (ATCC 29212); settings: Table S3; ref 10 (SI); cited from earlier work
[9] = test system: E. coli N43 (CGSC no. 5583); settings: Table S3; AcrA knockout strain; ref 10 (SI); cited from earlier work
S. aureus topoIV = target: T1, S. aureus topoIV (Staphylococcus aureus, UniProt Q2FYS4); experiment: TopoIV decatenation inhibition assay (S. aureus); assay type: biochemical; settings: read-out: IC50 TopoIV S. aureus, mean of two independent measurements ± SD
T1 construct: purchased Inspiralis (Norwich, UK)

Human topoisomerase IIα = Human topoisomerase IIα (Homo sapiens, UniProt P11388); experiment: Human topoisomerase IIα residual activity; assay type: biochemical; settings: read-out: Human topoisomerase IIα (%RA)
MRSA (QA-11.7) [10] = experiment: microbe, parasite or virus in culture; settings: Staphylococcus aureus, read-out: MIC MRSA (QA-11.7)
Protocol: (§1) The in vitro antibacterial activity, expressed as minimum inhibitory concentration (MIC), was determined against broad spectrum of bacteria, including Gram-positive (Staphylococcus aureus, methicillin-resistant Staphylococcus aureus, Streptococcus agalactiae, and Enterococcus faecalis) and Gram-negative strains (Escherichia coli, Salmonella alachua, Pseudomonas aeruginosa, and Klebsiella pneumoniae), enriched with various MRSA strains resistant to various antibiotics as well as E. coli strains with increased membrane permeability and lack of efflux pump, as well. […]
(§2) The minimum inhibitory concentrations (MICs) were determined using the broth micro-dilution method in 96-well plate format according to the Clinical and Laboratory Standards Institute […]
(§3) guidelines8 and European Committee on Antimicrobial Susceptibility Testing recommendations9. The bacterial suspension of the specific bacterial strain equivalent to the 0.5 McFarland turbidity standard was diluted with cation-adapted Mueller Hinton broth with TES (Thermo Fisher Scientific) to obtain a […]
(§4) The compounds dissolved in DMSO and inoculum were mixed together and incubated for 20 h at 35 °C.

[11] = test system: E. coli N43 (CGSC no. 5583); experiment: microbe, parasite or virus in culture; settings: Escherichia coli
Protocol: as §1, §2, §3, §4

[12] = test system: Enterococcus faecalis DRK 057 (ATCC 29212); experiment: microbe, parasite or virus in culture
Protocol: as §1, §2, §3, §4

[13] = test system: Streptococcus agalactiae RDK 047 (QA-990/02); experiment: microbe, parasite or virus in culture
Protocol: as §1, §2, §3, §4

MRSA (QA-12.1) = experiment: microbe, parasite or virus in culture; settings: Staphylococcus aureus, read-out: MIC MRSA (QA-12.1)
Protocol: as §1, §2, §3, §4

S. aureus (ATCC 29213) [14] = experiment: microbe, parasite or virus in culture; settings: Staphylococcus aureus, ATCC29213, read-out: MIC S. aureus (ATCC 29213)
Protocol: as §1, §2, §3, §4

Klebsiella pneumoniae = experiment: microbe, parasite or virus in culture
Protocol: as §1, §2, §3, §4

E. coli (ATCC 25922) [15] = experiment: microbe, parasite or virus in culture; settings: Escherichia coli, ATCC25922, read-out: MIC E. coli (ATCC 25922)
Protocol: as §1, §2, §3, §4

[16] = test system: Salmonella alachua RDK 030c (QA-1482/04); experiment: microbe, parasite or virus in culture
Protocol: as §1, §2, §3, §4

[17] = test system: Pseudomonas aeruginosa RDK 184 (DSM 939); experiment: microbe, parasite or virus in culture
Protocol: as §1, §2, §3, §4

E. coli D22 [18] = experiment: microbe, parasite or virus in culture; settings: Escherichia coli
Protocol: as §1, §2, §3, §4

S. aureus DNA gyrase = target: T2, S. aureus DNA gyrase (Staphylococcus aureus, UniProt P20831); experiment: DNA gyrase supercoiling inhibition assay (S. aureus); assay type: biochemical; settings: mean of two independent measurements ± SD
T2 construct: purchased Inspiralis (Norwich, UK)
Protocol: We synthesized and biologically evaluated ten new compounds. We determined their inhibitory activity, expressed as IC50 values, on both Gram-positive S. aureus and Gram-negative E. coli bacterial enzymes (DNA gyrase and topo IV), respectively. The in vitro antibacterial activity, expressed as minimum inhibitory concentration (MIC), was determined against broad spectrum of bacteria, including Gram-positive (Staphylococcus aureus, methicillin-resistant Staphylococcus aureus, Streptococcus agalactiae, and Enterococcus faecalis) and Gram-negative strains (Escherichia coli, Salmonella alachua, Pseudomonas aeruginosa, and Klebsiella pneumoniae), enriched with various MRSA strains resistant to various antibiotics as well as E. coli strains with increased membrane permeability and lack of efflux pump, as well. Furthermore, the selectivity of compounds for bacterial enzyme compared to the orthologous human topoisomerase IIα was also considered. The in vitro safety profile was determined by cytotoxicity assessment on human umbilical vein endothelial cell lines (HUVEC) and HepG2 liver cancer cell lines.
Determination of DNA gyrase and topoisomerase IV inhibitory activities
To determine the IC50 values of the compounds, a Gyrase Supercoiling High Throughput Plate assay kit and a TopoIV Relaxation High Throughput Plate assay kit, commercially available from Inspiralis (Norwich, UK), were used for S. aureus and E. coli. The assays were performed on black streptavidin-coated 96-well microtiter plates (Thermo Scientific Pierce, Norwich, UK) and the wells were first […]
BSA and 0.05% [v/v] Tween-20). Biotinylated oligonucleotide diluted with the wash buffer was then immobilized in each well and the excess was removed with the wash buffer. 1.5 U of the enzyme S. aureus or E. coli DNA gyrase (topoIV) was incubated together with 0.75 μg of relaxed (supercoiled) pNO1 plasmid as substrate in the presence of 3 μl inhibitor solution in 10% DMSO and 0.008% Tween-20 at 37°C for 30 min in a final reaction volume of 30 μl in the assay buffer (S. aureus DNA gyrase: 40 mM HEPES.KOH (pH 7.6), 10 mM magnesium acetate, 10 mM DTT, 2 mM ATP, 500 mM potassium glutamate and 0.05 mg/ml albumin; E. coli DNA gyrase: 35 mM Tris.HCl (pH 7.5), 24 […]
mg/ml albumin; S. aureus topo IV: 50 mM Tris.HCl (7.5), 5 mM MgCl 2, 5 mM DTT, 1.5 mM ATP, 350 mM potassium glutamate and 0.05 mg/ml albumin; E. coli topo IV: 40 mM HEPES.KOH (pH 7.6), 100 mM potassium glutamate, 10 mM magnesium acetate, 10 mM DTT, 1 mM ATP and 50 μg/ml albumin). The reaction was stopped by adding the TF buffer (50 mM NaOAc (pH 4.7), 50 mM NaCl and 50 mM MgCl2) to allow triplex formation (biotin oligonucleotide plasmid) for another 30 min. Finally, the unbound plasmid was washed off using the TF buffer and the Promega Diamond dye was added to T10 buffer (10 mM Tris-HCl (pH 8.0), 1 mM EDTA) solution. After 15 min the solution […]
Two inhibitor concentrations of 100 and 1 μM were used for pre-screening. The IC 50 values […]
(IC50) was calculated by nonlinear regression-based fitting of the inhibition curves using the log [inhibitor] versus response-variable slope (four parameters) – symmetrical equation, in GraphPad Prism 6.0 software (GraphPad Software, CA, USA). The IC50 value represents the average of two independent measurements.
The minimum inhibitory concentrations (MICs) were determined using the broth micro-dilution method in 96-well plate format according to the Clinical and Laboratory Standards Institute

[19] = read-out: MIC E. coli N43 (CGSC no. 5583)
[20] = read-out: MIC E. coli N43 (CGSC# 5583)
[21] = ATCC29212, read-out: MIC E. faecalis DRK 057 (ATCC 29212)
[22] = ATCC29212, read-out: MIC Enterococcus faecalis DRK 057 (ATCC 29212)
[23] = read-out: MIC S. agalactiae RDK 047 (QA-990/02)
[24] = read-out: MIC Streptococcus agalactiae RDK 047 (QA-990/02)
[25] = read-out: MIC Klebsiella pneumoniae
[26] = read-out: MIC S. alachua RDK 030c (QA-1482/04)
[27] = read-out: MIC Salmonella alachua RDK 030c (QA-1482/04)
[28] = DSM939, read-out: MIC P. aeruginosa RDK 184 (DSM 939)
[29] = DSM939, read-out: MIC Pseudomonas aeruginosa RDK 184 (DSM 939)

Chain of Human topoisomerase IIα (P11388 whole entry): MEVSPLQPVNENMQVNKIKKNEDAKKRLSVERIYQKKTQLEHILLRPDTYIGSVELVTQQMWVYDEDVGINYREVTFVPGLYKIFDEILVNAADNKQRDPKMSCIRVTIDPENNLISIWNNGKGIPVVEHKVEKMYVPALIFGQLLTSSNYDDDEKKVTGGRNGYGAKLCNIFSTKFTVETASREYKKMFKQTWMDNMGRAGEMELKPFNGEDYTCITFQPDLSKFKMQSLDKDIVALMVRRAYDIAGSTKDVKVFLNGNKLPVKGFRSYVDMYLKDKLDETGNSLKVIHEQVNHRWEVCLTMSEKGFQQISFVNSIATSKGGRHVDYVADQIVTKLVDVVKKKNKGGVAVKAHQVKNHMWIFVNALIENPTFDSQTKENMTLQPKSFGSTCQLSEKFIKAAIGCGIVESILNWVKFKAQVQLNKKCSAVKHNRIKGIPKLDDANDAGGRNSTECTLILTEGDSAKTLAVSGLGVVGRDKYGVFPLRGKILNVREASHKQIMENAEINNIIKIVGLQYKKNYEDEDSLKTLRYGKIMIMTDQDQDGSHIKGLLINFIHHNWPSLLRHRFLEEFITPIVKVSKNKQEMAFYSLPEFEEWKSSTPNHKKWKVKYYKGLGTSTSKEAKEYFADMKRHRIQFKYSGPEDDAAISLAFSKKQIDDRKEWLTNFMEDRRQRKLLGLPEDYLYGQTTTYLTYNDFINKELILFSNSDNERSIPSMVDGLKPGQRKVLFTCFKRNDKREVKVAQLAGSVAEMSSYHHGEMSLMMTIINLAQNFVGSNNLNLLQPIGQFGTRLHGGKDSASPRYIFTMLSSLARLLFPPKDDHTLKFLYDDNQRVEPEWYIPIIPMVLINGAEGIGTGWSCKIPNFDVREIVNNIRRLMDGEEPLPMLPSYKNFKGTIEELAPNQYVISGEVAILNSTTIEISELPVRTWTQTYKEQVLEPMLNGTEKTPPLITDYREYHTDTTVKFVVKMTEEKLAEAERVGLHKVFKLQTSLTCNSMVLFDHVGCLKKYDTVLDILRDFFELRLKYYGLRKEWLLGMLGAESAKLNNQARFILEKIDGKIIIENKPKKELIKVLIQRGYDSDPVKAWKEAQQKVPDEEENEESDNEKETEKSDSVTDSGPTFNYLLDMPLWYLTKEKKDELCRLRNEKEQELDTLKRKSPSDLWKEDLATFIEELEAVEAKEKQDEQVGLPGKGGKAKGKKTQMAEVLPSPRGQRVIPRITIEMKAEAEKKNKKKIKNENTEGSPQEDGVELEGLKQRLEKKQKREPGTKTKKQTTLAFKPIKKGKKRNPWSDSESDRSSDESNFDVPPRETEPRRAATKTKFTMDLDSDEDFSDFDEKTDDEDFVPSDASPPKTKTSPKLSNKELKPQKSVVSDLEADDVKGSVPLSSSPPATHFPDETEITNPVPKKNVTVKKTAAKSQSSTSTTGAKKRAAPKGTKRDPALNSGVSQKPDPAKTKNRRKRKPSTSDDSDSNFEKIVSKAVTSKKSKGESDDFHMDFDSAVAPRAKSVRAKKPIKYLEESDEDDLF
T2 sequence (P20831 whole entry, looked up): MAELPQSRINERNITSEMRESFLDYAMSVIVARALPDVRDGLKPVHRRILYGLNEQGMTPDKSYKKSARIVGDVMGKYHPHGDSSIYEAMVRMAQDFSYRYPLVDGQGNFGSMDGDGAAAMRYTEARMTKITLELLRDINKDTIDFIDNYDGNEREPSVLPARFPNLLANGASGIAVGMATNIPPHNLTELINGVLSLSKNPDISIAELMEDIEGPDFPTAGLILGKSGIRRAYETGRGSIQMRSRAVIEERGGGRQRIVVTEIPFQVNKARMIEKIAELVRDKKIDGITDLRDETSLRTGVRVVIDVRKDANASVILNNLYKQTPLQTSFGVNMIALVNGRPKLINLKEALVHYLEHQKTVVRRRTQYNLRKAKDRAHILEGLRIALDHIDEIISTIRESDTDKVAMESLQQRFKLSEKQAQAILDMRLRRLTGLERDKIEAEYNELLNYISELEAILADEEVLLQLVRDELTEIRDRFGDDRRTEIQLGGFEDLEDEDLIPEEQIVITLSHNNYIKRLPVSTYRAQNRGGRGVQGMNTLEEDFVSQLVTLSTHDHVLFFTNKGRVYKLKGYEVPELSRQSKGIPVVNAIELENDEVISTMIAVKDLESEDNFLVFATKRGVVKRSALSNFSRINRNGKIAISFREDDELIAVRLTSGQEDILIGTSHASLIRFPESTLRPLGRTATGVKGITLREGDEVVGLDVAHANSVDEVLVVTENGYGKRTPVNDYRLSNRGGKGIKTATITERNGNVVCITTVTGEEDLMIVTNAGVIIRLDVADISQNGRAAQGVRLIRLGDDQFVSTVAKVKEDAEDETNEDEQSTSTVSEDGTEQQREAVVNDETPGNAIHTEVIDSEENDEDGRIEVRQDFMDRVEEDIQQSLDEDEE
T1 sequence (Q2FYS4 whole entry, looked up): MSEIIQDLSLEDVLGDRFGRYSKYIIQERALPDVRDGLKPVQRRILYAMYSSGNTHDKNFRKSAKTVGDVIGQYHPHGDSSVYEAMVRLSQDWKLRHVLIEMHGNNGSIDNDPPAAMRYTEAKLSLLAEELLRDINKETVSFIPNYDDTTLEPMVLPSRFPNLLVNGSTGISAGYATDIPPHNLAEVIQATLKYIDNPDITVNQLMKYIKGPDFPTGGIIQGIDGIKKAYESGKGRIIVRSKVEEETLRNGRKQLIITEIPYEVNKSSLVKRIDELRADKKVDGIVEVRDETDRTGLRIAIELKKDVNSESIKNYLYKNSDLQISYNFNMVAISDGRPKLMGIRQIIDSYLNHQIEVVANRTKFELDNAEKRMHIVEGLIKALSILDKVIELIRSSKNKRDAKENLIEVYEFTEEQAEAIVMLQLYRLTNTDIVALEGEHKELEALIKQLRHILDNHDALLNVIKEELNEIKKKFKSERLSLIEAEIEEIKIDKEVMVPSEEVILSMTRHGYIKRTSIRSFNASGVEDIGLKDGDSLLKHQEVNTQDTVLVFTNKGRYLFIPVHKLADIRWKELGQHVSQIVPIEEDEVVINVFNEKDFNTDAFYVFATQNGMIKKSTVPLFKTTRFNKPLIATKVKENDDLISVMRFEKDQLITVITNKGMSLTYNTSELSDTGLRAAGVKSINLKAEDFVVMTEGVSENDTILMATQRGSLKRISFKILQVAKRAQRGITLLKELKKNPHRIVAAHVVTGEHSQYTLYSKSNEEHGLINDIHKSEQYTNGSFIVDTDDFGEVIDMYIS

SMILES	MIC E. coli (ATCC 25922) (E. coli (ATCC 25922) [1]) [µM]	MIC S. agalactiae RDK 047 (QA-990/02) [2] [µM]	MIC S. alachua RDK 030c (QA-1482/04) [3] [µM]	MIC S. aureus (ATCC 29213) (S. aureus (ATCC 29213) [4]) [µM]	MIC P. aeruginosa RDK 184 (DSM 939) [5] [µM]	MIC MRSA (QA-11.7) (MRSA (QA-11.7) [6]) [µM]	MIC E. coli D2 (E. coli D22 [7]) [µM]	MIC E. faecalis DRK 057 (ATCC 29212) [8] [µM]	MIC E. coli N43 (CGSC# 5583) [9] [µM]	MIC (MRSA (QA-11.7) [10])	MIC [11, 19] [µg/mL]	MIC [11, 20] [µM]	MIC [12, 21] [µM]	MIC [12, 22] [µg/mL]	MIC [13, 23] [µM]	MIC [13, 24] [µg/mL]	MIC (MRSA (QA-12.1))	MIC (S. aureus (ATCC 29213) [14])	MIC (Klebsiella pneumoniae; read-out: MIC K. pneumoniae) [µM]	MIC (Klebsiella pneumoniae; [25]) [µg/mL]	further results
COc1ccc2nccc(CCN3CCC(NCc4ccc(Cl)cc4)CC3)c2n1 [Compound 1]	9.73 (≈ 4 µg/mL)	2.43 (≈ 0.999 µg/mL)	77.9 (≈ 32 µg/mL)	0.304 (≈ 0.125 µg/mL)	> 311	1.22 (≈ 0.501 µg/mL)	4.87 (≈ 2 µg/mL)	2.43 (≈ 0.999 µg/mL)	1.22 (≈ 0.501 µg/mL)												MIC Pseudomonas aeruginosa RDK 184 (DSM 939) [5]: >128 µg/mL
COc1ccc2nccc(CCN3CCC(NCc4ccc(Br)cc4)CC3)c2n1 [Compound 2]	4.39 (≈ 2 µg/mL)	1.098 (≈ 0.5 µg/mL)	35.1 (≈ 16 µg/mL)	0.068 (≈ 0.031 µg/mL)	281 (≈ 128 µg/mL)	0.136 (≈ 0.0619 µg/mL)	0.274 (≈ 0.125 µg/mL)	2.20 (≈ 1 µg/mL)	0.274 (≈ 0.125 µg/mL)												
COc1ccc2nccc(CCN3CCC(NCc4ccc(I)cc4)CC3)c2n1 [Compound 3]	3.98 (≈ 2 µg/mL)	0.249 (≈ 0.125 µg/mL)	15.9 (≈ 7.99 µg/mL)	0.016 (≈ 0.00804 µg/mL)	63.7 (≈ 32 µg/mL)	0.016 (≈ 0.00804 µg/mL)	0.249 (≈ 0.125 µg/mL)		0.155 (≈ 0.0779 µg/mL)												
COc1ccc2nccc(CCN3CCC(NCc4ccc(I)c(F)c4)CC3)c2n1 [Compound 6]										0.031 µM and 0.016 µg/mL	0.016	0.031	0.48	0.25	0.48	0.25	0.031 µM and 0.016 µg/mL	0.015 µM and 0.008 µg/mL	15.4	8	IC50 (S. aureus topoIV): 90 ± 102 nM; remaining activity at 10 µM (Human topoisomerase IIα): 97.7 ± 1.31%; MIC (E. coli (ATCC 25922) [15]): 0.961 µM and 0.5 µg/mL; MIC [16, 26]: 3.84 µM; MIC [16, 27]: 2 µg/mL; MIC [17, 28]: 30.7 µM; MIC [17, 29]: 16 µg/mL; MIC (E. coli D22 [18]; D22, read-out: MIC E. coli D2): 0.119 µM; MIC (E. coli D22 [18]; D22, read-out: MIC E. coli D22): 0.062 µg/mL; IC50 (S. aureus DNA gyrase): 4 nM
COc1ccc2nccc(CCN3CCC(NCc4ccc(Cl)cn4)CC3)c2n1 [Compound 13]										0.607 µM and 0.25 µg/mL	8	19.4	9.71	4	19.4	8	0.607 µM and 0.25 µg/mL	0.303 µM and 0.125 µg/mL	> 311	> 128	remaining activity at 10 µM (Human topoisomerase IIα; residual activity at 10 μM compound, mean ± SD, two independent experiments): 99.36 ± 0.34%; MIC (E. coli (ATCC 25922) [15]): 77.7 µM and 32 µg/mL; MIC [16, 26]: > 311 µM; MIC [16, 27]: > 128 µg/mL; MIC [17, 28]: > 311 µM; MIC [17, 29]: > 128 µg/mL; MIC (E. coli D22 [18]; D22, read-out: MIC E. coli D2): 38.8 µM; MIC (E. coli D22 [18]; D22, read-out: MIC E. coli D22): 16 µg/mL; IC50 (S. aureus DNA gyrase): 123 ± 19 nM
